One assay concerns the target T1, KRas^G12V (Homo sapiens, UniProt P01116, G12V).
T1 construct: […]; biotin (biotinylated); purchased Accelegan Inc
In words: KRas binding assay (TR-FRET displacement of Cy5 labelled tracer).

Another assay relates to PSN1 cells, pERK. The assay is described as follows: Inhibition of KRas phosphorylation of ERK (Cisbio HTRF Advanced pERK assay). Format: cell-based. As to conditions: Homo sapiens, PSN1, 3 h, read-out: Inhibition (HTRF IC50 nM) of KRas-mediated Phosphorylation of ERK, PSN1. The gist of the method:
(§1)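 Compound effect on ERK phosphorylation is measured after 3 h exposure of cells, seeded the previous day in RPMI with 10% FBS, to ten 3-fold dilutions starting at 10 uM. Lysates are probed by HTRF for pERK, with trametinib at 0.2 uM defining the minimum signal.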
Background: In TR-FRET formats the signal depends on donor and acceptor labels being close together.

The next assay concerns MKN1 cells, pERK. The assay is described as above. The format is cell-based. The following applies: Homo sapiens, MKN-1, 3 h, read-out: Inhibition (HTRF IC50 nM) of KRas-mediated Phosphorylation of ERK, MKN1. The procedure, abridged:
as §1

A further assay deals with T2, KRas^G12R (Homo sapiens, UniProt P01116, G12R).
T2 construct: […]; biotin (biotinylated); purchased Accelegan Inc
T2 sequence (P01116 1-169 isoform P01116-2 G12R): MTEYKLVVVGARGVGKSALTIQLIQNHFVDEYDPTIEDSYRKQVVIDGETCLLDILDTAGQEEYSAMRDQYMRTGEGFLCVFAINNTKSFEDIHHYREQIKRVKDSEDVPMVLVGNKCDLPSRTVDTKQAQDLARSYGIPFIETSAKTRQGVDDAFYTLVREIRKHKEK
In words: KRas binding assay (TR-FRET displacement of Cy5 labelled tracer).

Assay [1] deals with NCI-H727 (G12V) cells, phospho-ERK. In words: Inhibition of KRas-mediated phosphorylation of ERK (phospho-ERK/GAPDH antibody detection, LI-COR). The following applies: Homo sapiens, 3 hours. The format is cell-based. Here is the method: (§2) AsPC-1 (G12D, ATCC CRL-1682), A549 (G12S, ATCC CCL-185), HCT116 (G13D, ATCC CCL-247) cells were grown in DMEM medium supplemented with 10% fetal bovine serum and Penicillin/Streptomycin. NCI-H358 (G12C, ATCC CRL-5807), NCI-H460 (Q61H, ATCC HTB-117), NCI-H727 (G12V, ATCC CRL-5815), MKN1 (WTdep, JCRB JCRB0252), PSN-1 (G12R, ATCC CRM-CRL-3211) cells were grown in RPMI medium supplemented with 10% fetal bovine serum, 10 mM HEPES, 10 mM Sodium Pyruvate, and Penicillin/Streptomycin. Cells were plated in black well clear bottom tissue culture treated 96 well plates (Corning, 3904) at a density of 20,000 cells/well and allowed to attach for 12-14 hours. Diluted compounds were then added in a final concentration of 0.5% DMSO. After 3 hours, 50 μL of 4.0% formaldehyde was added and the plates incubated at room temperature for 20 minutes. The plates were then dumped and permeabilized with 150 μL of ice cold 100% methanol for 10 minutes. Non-specific antibody binding to the plates was blocked using 100 μL Odyssey blocking buffer (LI-COR Biosciences, 927-60010) for 1 hour at room temperature.
(§3) The amount of phospho-ERK was determined using an antibody specific for the phosphorylated form of ERK and compared to the amount of GAPDH. Primary antibodies used for the detection were added as follows: Phospho-ERK (Cell Signaling CS-9101) diluted 1:500 and GAPDH (Millipore MAB374) diluted 1:5000 in Odyssey blocking buffer+0.05% Tween 20. The plates were incubated overnight at 4 C. The plates were washed 3× with 150 uL PBS+0.1% Tween 20.
(§4) Secondary antibodies used to visualize primary antibodies were added as follows: Goat Anti-Rabbit-800 (LI-COR, 926-32211) and Goat Anti-Mouse-680 (LI-COR, 926-68070) diluted 1:800 both in Odyssey blocking buffer+0.05% Tween 20 and were incubated for 1 hour at room temperature. The plates were washed 3× with 150 uL PBS+[…]. Plates were imaged dry on a Li—COR Odyssey CLX plate reader.
(§5) The phospho-ERK (Thr202/Tyr204) signal was normalized to the GAPDH signal for each well and percent of DMSO control values were calculated. IC50 values were generated using a 4-parameter fit of the dose response curve.

Assay [2] deals with NCI-H460 (Q61H) cells, phospho-ERK. The assay is described as above. Format: cell-based. The following applies: Homo sapiens, 3 hours. Here is the method:
as §2, §3, §4, §5

For assay [3], the system named is AsPC-1 (G12D) cells, phospho-ERK. Described as above. Format: cell-based. The following applies: Homo sapiens, ASPC1, 3 hours. The procedure: as §2, §3, §4, §5
The target of the next assay is T3, KRas^G12D (Homo sapiens, UniProt P01116, G12D).
T3 construct: […]; biotin (biotinylated); purchased Accelegan Inc
T3 sequence (P01116 1-169 isoform P01116-2 G12D): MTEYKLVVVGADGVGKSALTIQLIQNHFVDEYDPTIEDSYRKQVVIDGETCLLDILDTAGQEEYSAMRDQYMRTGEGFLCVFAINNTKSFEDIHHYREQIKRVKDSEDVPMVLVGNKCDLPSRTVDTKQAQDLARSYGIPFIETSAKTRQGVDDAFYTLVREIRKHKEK
The assay is described as follows: KRas binding assay (TR-FRET displacement of Cy5 labelled tracer).

The next assay deals with KRas^Q61H (Homo sapiens, UniProt P01116, Q61H). In words: biochemical.
Chain of KRas^Q61H (P01116 1-169 isoform P01116-2 Q61H): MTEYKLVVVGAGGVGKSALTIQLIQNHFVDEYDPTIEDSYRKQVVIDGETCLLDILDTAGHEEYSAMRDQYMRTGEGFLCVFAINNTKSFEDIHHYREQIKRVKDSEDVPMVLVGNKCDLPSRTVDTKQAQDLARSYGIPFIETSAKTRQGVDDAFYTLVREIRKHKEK
The target of the next assay is T4, KRas^WT (Homo sapiens, UniProt P01116).
T4 construct: […]; biotin (biotinylated); purchased Accelegan Inc
T4 sequence (P01116 1-169 isoform P01116-2): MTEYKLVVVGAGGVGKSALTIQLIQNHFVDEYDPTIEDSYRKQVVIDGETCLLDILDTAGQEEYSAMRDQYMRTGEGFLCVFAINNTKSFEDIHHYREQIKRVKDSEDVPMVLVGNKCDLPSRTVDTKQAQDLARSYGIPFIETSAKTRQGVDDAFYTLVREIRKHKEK
The assay is described as follows: KRas binding assay (TR-FRET displacement of Cy5 labelled tracer).

A further assay concerns the target KRas^G12C (Homo sapiens, UniProt P01116, G12C). The assay is described as follows: biochemical.
In a further assay the target is T5, KRas^G12A (Homo sapiens, UniProt P01116, G12A).
T5 construct: […]; biotin (biotinylated); purchased Accelegan Inc
T5 sequence (P01116 1-169 isoform P01116-2 G12A): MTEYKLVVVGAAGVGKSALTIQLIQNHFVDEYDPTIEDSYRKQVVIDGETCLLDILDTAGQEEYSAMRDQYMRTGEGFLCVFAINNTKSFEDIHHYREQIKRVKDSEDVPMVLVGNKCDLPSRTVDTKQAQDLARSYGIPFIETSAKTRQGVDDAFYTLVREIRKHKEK
In words: KRas binding assay (TR-FRET displacement of Cy5 labelled tracer).

Another assay addresses T6, KRas^G12S (Homo sapiens, UniProt P01116, G12S).
T6 construct: […]; biotin (biotinylated); purchased Accelegan Inc
Described as above.

Another assay addresses KRas^G13D (Homo sapiens, UniProt P01116, G13D). In words: biochemical.

T1 sequence (P01116 1-169 isoform P01116-2 G12V): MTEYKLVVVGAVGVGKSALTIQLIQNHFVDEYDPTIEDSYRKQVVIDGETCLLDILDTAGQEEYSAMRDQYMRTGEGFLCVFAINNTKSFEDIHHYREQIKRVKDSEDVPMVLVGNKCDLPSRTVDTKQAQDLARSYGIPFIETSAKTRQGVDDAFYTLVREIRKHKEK
Chain of KRas^G13D (P01116 1-169 isoform P01116-2 G13D): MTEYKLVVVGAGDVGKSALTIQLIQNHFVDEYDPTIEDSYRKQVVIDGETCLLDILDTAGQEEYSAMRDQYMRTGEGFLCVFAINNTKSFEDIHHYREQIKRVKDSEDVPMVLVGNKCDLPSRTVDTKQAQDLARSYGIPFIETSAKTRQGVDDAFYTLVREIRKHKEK
T6 sequence (P01116 1-169 isoform P01116-2 G12S): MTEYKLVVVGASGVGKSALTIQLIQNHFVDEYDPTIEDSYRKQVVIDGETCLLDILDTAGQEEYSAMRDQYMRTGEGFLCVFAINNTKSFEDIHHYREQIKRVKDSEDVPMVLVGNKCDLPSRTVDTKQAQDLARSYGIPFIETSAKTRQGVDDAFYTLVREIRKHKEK
Chain of KRas^G12C (P01116 1-169 isoform P01116-2 G12C): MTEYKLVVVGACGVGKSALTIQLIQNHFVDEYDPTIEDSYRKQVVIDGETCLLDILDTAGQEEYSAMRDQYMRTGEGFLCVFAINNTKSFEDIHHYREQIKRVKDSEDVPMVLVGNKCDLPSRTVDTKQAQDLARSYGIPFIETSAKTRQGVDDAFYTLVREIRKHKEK
Method for KRas^G12A: (§6) The ability of a compound to bind to KRas was measured using a TR-FRET displacement assay. […] After a 60-minute incubation at room temperature, the reaction was measured using a BMG LABTECH CLARIO star Plus via TR-FRET. […] The POC values were fit to a 4-parameter IC50 equation and the IC50 value reported.
Method for KRas^G12C: as §6
Method for KRas^G12D: as §6
Method for KRas^G12R: as §6
Method for KRas^G12S: as §6
Method for KRas^G12V: as §6
Method for KRas^G13D: as §6
Method for KRas^Q61H: as §6
Method for KRas^WT: as §6

For the molecule `CCc1c(F)ccc2cc(O)cc(N3CCc4c(nc(OC[C@@]56CCCN5C[C@H](F)C6)nc4N4CCCn5nc(N)cc5C4)C3)c12` [Example 18, 4-(4-(2-amino-7,8-dihydro-4H-pyrazolo[1,5-a][1,4]diazepin-5(6H)-yl)-2-(((2R,7aS)-2-fluorohexahydro-1H-pyrrolizin-7a-yl)methoxy)-5,6-dihydropyrido[3,4-d]pyrimidin-7(8H)-yl)-5-ethyl-6-fluoronaphthalen-2-ol], the IC50 (as a rule, the concentration at which inhibition is half-maximal) at KRas^G12V was not above 0.002 µM; with PSN1 cells, pERK it was not below 10000 nM; in the assay on MKN1 cells, pERK it was 22 nM; on KRas^G12R, not above 0.002 µM; in assay [1], 503 nM; in [2], 317 nM. Also, the IC50 was 182 nM in [3] and not above 0.002 µM at KRas^G12D.
`CCc1c(F)ccc2cc(O)cc(N3CCc4c(nc(OC[C@@]56CCCN5C[C@H](F)C6)nc4N4CCCC5(CC(=O)N5)C4)C3)c12` (stereo partly drawn) [Example 21, 6-(7-(8-ethyl-7-fluoro-3-hydroxynaphthalen-1-yl)-2-(((2R,7aS)-2-fluorohexahydro-1H-pyrrolizin-7a-yl)methoxy)-5,6,7,8-tetrahydropyrido[3,4-d]pyrimidin-4-yl)-1,6-diazaspiro[3.5]nonan-2-one]: the IC50 at KRas^G12V is not above 0.002 µM; in the assay on PSN1 cells, pERK, 646 nM; with MKN1 cells, pERK, 9 nM; on KRas^G12R, not above 0.002 µM; in assay [1] it was 466 nM; in assay [2], 202 nM. The IC50 is 204 nM in [3] and not above 0.002 µM at KRas^G12D.
Turning to `CCc1c(F)ccc2cc(O)cc(N3CCc4c(nc(OC[C@@]56CCCN5C[C@H](F)C6)nc4N4CCC(c5[nH]ncc5N)C4)C3)c12` (stereo partly drawn) [Example 26, 4-(4-(3-(4-amino-1H-pyrazol-5-yl)pyrrolidin-1-yl)-2-(((2R,7aS)-2-fluorohexahydro-1H-pyrrolizin-7a-yl)methoxy)-5,6-dihydropyrido[3,4-d]pyrimidin-7(8H)-yl)-5-ethyl-6-fluoronaphthalen-2-ol], the IC50 is 0.022 µM on KRas^Q61H; 0.024 µM at KRas^WT; 0.004 µM on KRas^G12V; 0.007 µM at KRas^G12C; 0.007 µM at KRas^G12A; 0.005 µM at KRas^G12R. The IC50 amounted to 0.01 µM at KRas^G12S; 3120 nM in assay [1]; 3260 nM in assay [2]; 10000 nM in assay [3]; 0.034 µM against KRas^G13D; 0.11 µM on KRas^G12D.
As for `CCc1c(F)ccc2cc(O)cc(N3CCc4c(nc(OC[C@@]56CCCN5C[C@H](F)C6)nc4N4CCCC(O)C4)C3)c12` (stereo partly drawn) [Example 27, 1-(7-(8-ethyl-7-fluoro-3-hydroxynaphthalen-1-yl)-2-(((2R,7aS)-2-fluorohexahydro-1H-pyrrolizin-7a-yl)methoxy)-5,6,7,8-tetrahydropyrido[3,4-d]pyrimidin-4-yl)piperidin-3-ol], the IC50 at KRas^G12V is not above 0.002 µM; in the assay with PSN1 cells, pERK it was 2720 nM; with MKN1 cells, pERK, 9 nM; on KRas^G12R, not above 0.002 µM; in assay [1], 549 nM; in [2], 282 nM. The IC50 in assay [3] was 808 nM; at KRas^G12D, not above 0.002 µM.
For `CCc1c(F)ccc2cc(O)cc(N3CCc4c(nc(OC[C@@]56CCCN5C[C@H](F)C6)nc4N4CCCCC(S(C)(=O)=O)C4)C3)c12` (stereo partly drawn) [Example 28, 5-ethyl-6-fluoro-4-(2-(((2R,7aS)-2-fluorohexahydro-1H-pyrrolizin-7a-yl)methoxy)-4-(3-(methylsulfonyl)azepan-1-yl)-5,6-dihydropyrido[3,4-d]pyrimidin-7(8H)-yl)naphthalen-2-ol], the IC50 was not above 0.002 µM on KRas^G12V; not below 10000 nM with PSN1 cells, pERK; 36 nM in the assay with MKN1 cells, pERK; not above 0.002 µM on KRas^G12R; 987 nM in [1]; 494 nM in assay [2]. For the same molecule, the IC50 was 1010 nM in assay [3] and not above 0.002 µM on KRas^G12D.
As to `CCc1c(F)ccc2cc(O)cc(N3CCc4c(nc(OC[C@@]56CCCN5C[C@H](F)C6)nc4NCc4ccc5nncn5c4)C3)c12` [Example 31, 4-(4-(([1,2,4]triazolo[4,3-a]pyridin-6-ylmethyl)amino)-2-(((2R,7aS)-2-fluorohexahydro-1H-pyrrolizin-7a-yl)methoxy)-5,6-dihydropyrido[3,4-d]pyrimidin-7(8H)-yl)-5-ethyl-6-fluoronaphthalen-2-ol], the IC50 at KRas^G12V is not above 0.002 µM; with PSN1 cells, pERK, not below 10000 nM; with MKN1 cells, pERK, 637 nM; on KRas^G12R, not above 0.002 µM; in [1] it was 3320 nM; in [2], more than 10000 nM. The IC50 was 3540 nM in assay [3] and 0.031 µM at KRas^G12D.
As to `CCc1c(F)ccc2cc(O)cc(N3CCc4c(nc(OC[C@@]56CCCN5C[C@H](F)C6)nc4N4CCCC(O)(C(F)F)C4)C3)c12` (stereo partly drawn) [Example 32, 3-(difluoromethyl)-1-(7-(8-ethyl-7-fluoro-3-hydroxynaphthalen-1-yl)-2-(((2R,7aS)-2-fluorohexahydro-1H-pyrrolizin-7a-yl)methoxy)-5,6,7,8-tetrahydropyrido[3,4-d]pyrimidin-4-yl)piperidin-3-ol], the IC50 at KRas^G12V was not above 0.002 µM; with PSN1 cells, pERK, 1540 nM; in the assay with MKN1 cells, pERK, 31 nM; on KRas^G12R it was 0.003 µM; in assay [1], 1090 nM; in [2], 381 nM. Moreover, the IC50 is 624 nM in assay [3] and not above 0.002 µM at KRas^G12D.
As to `CCc1c(F)ccc2cc(O)cc(N3CCc4c(nc(OC[C@@]56CCCN5C[C@H](F)C6)nc4N4CCC(O)C(CO)CC4)C3)c12` (stereo partly drawn) [Example 33, 1-(7-(8-ethyl-7-fluoro-3-hydroxynaphthalen-1-yl)-2-(((2R,7aS)-2-fluorohexahydro-1H-pyrrolizin-7a-yl)methoxy)-5,6,7,8-tetrahydropyrido[3,4-d]pyrimidin-4-yl)-5-(hydroxymethyl)azepan-4-ol], the IC50 on KRas^G12V was not above 0.002 µM; in the assay on PSN1 cells, pERK, not below 10000 nM; with MKN1 cells, pERK, 11 nM; at KRas^G12R it was not above 0.002 µM; in [1], 1860 nM; in assay [2], 398 nM. The half-maximal inhibitory concentration (IC50) in assay [3] was 1360 nM; at KRas^G12D it was 0.005 µM.
For `CCc1c(F)ccc2cc(O)cc(N3CCc4c(nc(OC[C@@]56CCCN5C[C@H](F)C6)nc4N4CC5CC(O)CC4C5)C3)c12` (stereo partly drawn) [Example 35, 6-(7-(8-ethyl-7-fluoro-3-hydroxynaphthalen-1-yl)-2-(((2R,7aS)-2-fluorohexahydro-1H-pyrrolizin-7a-yl)methoxy)-5,6,7,8-tetrahydropyrido[3,4-d]pyrimidin-4-yl)-6-azabicyclo[3.2.1]octan-3-ol], the half-maximal inhibitory concentration (IC50) is 0.052 µM at KRas^G12V; 5720 nM in the assay with PSN1 cells, pERK; 159 nM in the assay with MKN1 cells, pERK; not above 0.002 µM on KRas^G12R; 1620 nM in [1]; 1430 nM in [2]. In addition, the IC50 in assay [3] was 2360 nM; at KRas^G12D, 0.007 µM.
